Results reported in PMC4547397, “A Caged Ret Kinase Inhibitor and its Effect on Motoneuron Development in Zebrafish Embryos” (Scientific Reports, 2015).
“Also recorded” adds a separate entry of the source. Like-named read-outs stand apart in the source and are kept apart here.

Key:
[1] = test system: zebrafish embryos tg(olig2:dsRed) (ret); experiment: Motoneuron development in zebrafish embryos, confocal imaging at 2 dpf; format: in vivo, Danio rerio
Experimental: In the light of this, we chose to investigate the decaging of 6 in the transgenic zebrafish line tg(olig2:dsRed)[33], and any effect this may have on the motoneuron development. The choice of zebrafish line is motivated by the labeling of ventral spinal cord precursor cells that produce motoneurons and oligodendrocytes, facilitating the assessment of altered motoneuron phenotypes. Transgenic zebrafish embryos were incubated in 10 μM and 50 μM solutions of 6 at 3 hours post fertilization (hpf) for 11 h. We opted for decaging at 14 hpf since primary motoneurons start to sprout growth cones at 18 hpf[36]. We hypothesized that blocking ret signalling at this time point would primarily affect axonal extension and not formation of motoneurons. After washing with fresh medium the embryos were irradiated for 15 min (365 nm). The embryos were left to develop until 2 days post fertilization (dpf) when their spinal cords were scanned with confocal imaging. […] All experimental procedures were carried out in compliance with relevant guidelines and regulations of the Swedish National Board for Laboratory Animals. The protocols were also approved by the medical ethics committee of University of Gothenburg. Zebrafish (Danio rerio) embryos of strain tg(olig2:dsRed)[32] were kept at the Institute of Neuroscience and Physiology, University of Gothenburg. Fertilized eggs were collected and kept in petri dishes containing embryo medium (EM; 5.03 mM NaCl, 0.17 mM KCl, 0.33 mM CaCl2·2H2O, 0.33 mM MgCl2·6H2O), in darkness, in an incubator at 28.5 °C. Eggs were incubated in either 6 or 1% DMSO from 3 hours post-fertilization (hpf) and then dechorinated at 9 hpf to allow for better compound uptake. After 11 hours of incubation, 14 hpf embryos were washed three times with EM and moved to clean petri dishes containing 1-phenyl 2-thiourea (PTU, 0,003%, Sigma) and diluted in EM to prevent pigmentation. Embryos were irradiated for 15 min (365 nm) and then kept in the incubator until time of confocal imaging. A second set of animals were incubated in 6 from 14 hpf to 24 hpf, after which animals were washed and illuminated in the same way as the first group. Prior to imaging at 2 days post-fertilization (dpf), the embryos were anesthetized using 0.02% tricaine methanesulfonate (MS-222) diluted in EM and embedded in low-melting agarose. The imaging was performed on a ZEISS LSM710 confocal microscope at the Centre for Cellular Imaging at the Sahlgrenska Academy. Stacks of labeled spinal cord neurons were collected using a 561 nm laser. Maximal intensity pictures of spinal cord hemisegments and axonal phenotypes were analyzed using ImageJ (U. S. National Institutes of Health, Bethesda, Maryland, USA) according to Abramsson et al. 2013[38].

[2] = test system: RET; parameters: method as in PMID 22559926; details: cited from earlier work
[3] = molecular target: T1, Human recombinant RET (Homo sapiens, UniProt P07949); experiment: In vitro (cell-free) RET kinase incubation, luminescent ADP detection; format: biochemical; details: for IC50: read-out: IC50, RET-induced ATP turnover; for RET kinase activity: 1.6 μM
T1 construct: purchased Promega; host or cells: Sf9 insect cells
T1 sequence (P07949 29-1114): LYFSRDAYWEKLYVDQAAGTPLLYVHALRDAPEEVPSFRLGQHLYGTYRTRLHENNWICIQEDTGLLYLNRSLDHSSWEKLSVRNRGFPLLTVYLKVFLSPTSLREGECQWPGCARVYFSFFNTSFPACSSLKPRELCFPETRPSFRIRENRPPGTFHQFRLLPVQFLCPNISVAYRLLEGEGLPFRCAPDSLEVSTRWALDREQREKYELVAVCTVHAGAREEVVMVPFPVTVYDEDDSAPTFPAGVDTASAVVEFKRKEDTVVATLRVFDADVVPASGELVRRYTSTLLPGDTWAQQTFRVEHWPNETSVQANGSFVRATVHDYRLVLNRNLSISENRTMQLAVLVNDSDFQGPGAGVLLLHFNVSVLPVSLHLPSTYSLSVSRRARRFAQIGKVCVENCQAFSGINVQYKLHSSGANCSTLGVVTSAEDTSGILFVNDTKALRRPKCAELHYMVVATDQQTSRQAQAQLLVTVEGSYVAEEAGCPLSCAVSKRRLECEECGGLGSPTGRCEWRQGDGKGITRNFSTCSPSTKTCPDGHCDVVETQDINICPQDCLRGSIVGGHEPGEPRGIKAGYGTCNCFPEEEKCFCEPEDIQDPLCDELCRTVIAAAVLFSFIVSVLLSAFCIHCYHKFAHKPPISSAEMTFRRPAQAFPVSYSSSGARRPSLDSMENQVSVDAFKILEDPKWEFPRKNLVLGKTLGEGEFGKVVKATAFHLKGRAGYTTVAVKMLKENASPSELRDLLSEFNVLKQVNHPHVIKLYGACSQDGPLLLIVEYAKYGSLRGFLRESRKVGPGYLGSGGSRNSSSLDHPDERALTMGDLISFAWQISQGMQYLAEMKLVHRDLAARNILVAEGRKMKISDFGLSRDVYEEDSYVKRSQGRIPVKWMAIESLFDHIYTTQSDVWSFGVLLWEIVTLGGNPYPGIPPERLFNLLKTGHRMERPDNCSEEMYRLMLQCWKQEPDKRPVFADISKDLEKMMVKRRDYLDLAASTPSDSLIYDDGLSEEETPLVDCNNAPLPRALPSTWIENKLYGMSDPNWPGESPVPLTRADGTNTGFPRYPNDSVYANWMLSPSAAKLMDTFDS
Experimental: With the caged compound in hand, the ability to photocontrol the inhibition of RET kinase was assessed. For this purpose, an in vitro assay with purified RET kinase was used to measure ADP production during substrate phosphorylation. Compound 6 was added to two parallel preparations comprising RET kinase and substrate. One preparation was exposed to light (365 nm, 15 min), while the other was kept in the dark.
After adding ATP and incubating at room temperature for 30 min, the relative ATP turnover was assessed. […] For example; irradiating an administered dose of 1.6 μM 6, would modulate the RET kinase activity from 90% to 10%.
Human recombinant RET expressed in Sf9 insect cells (Specific Activity: 220 nmol^−1min^−1mg^−1), substrate (IGFlRtide), and ATP were purchased in an assay ready kit from Promega[37] (Promega Corporation, Madison WI 53711 USA) and used as received. Incubations were performed in 40 mM Tris buffer (pH 7.4, 1 vol% DMSO) supplemented with 50 μM DTT and 20 mM MgCl2 in a white flat-bottom 96-well plate. Incubation volume was 25 μL. Brief procedure; Kinase (0.8 μg/mL), substrate (40 μg/mL), ATP (10 μM) and inhibitor were combined and incubated for 30 min at room temperature in the dark, with shaking. After the kinase reaction, two detection reagents were added in a stepwise manner. The first reagent depleted the remaining (unreacted) ATP in the reaction mix. The second reagent converted the ADP produced in the kinase reaction to ATP and generated a luminescence signal using a luciferase/luciferin reaction. The light generated is proportional to the amount ADP present and, consequently, to the kinase activity. Luminescence was recorded on a BMG Labtech Fluostar Omega luminometer. All incubations were done in duplicates.
2. Fitting of dose-response data
Positive and negative control experiments with and without light exposure (15 min, 365 nm) were run in parallel to the inhibitor incubations. The positive control was identical to the inhibitor experiment but with buffer additions instead of ATP and Neurturin for the cell-free and live-cell incubation, respectively. The negative control was identical to the inhibitor experiment but with inhibitor diluent (DMSO) addition instead of inhibitor. The intensity reading from the positive control was subtracted from the corresponding value from the inhibitor incubation. This was followed by normalization to the negative control reading. The resulting luminescence intensities (I) at the applied inhibitor concentrations (C) were fitted to […]
A global, error-weighted (instrumental) fit was performed by making the top- (A2) and bottom (A1) asymptotes shared parameters for the included data sets. […]
140/2013, and followed the guidelines of the Swedish National Board for Laboratory

[4] = test system: GDNF-induced RET phosphorylation of ERK1/2; parameters: method as in PMID 22559926; details: cited from earlier work
[5] = test system: 8505C cells; parameters: method as in PMID 25409876; details: cited from earlier work
[6] = test system: C643 cells; parameters: method as in PMID 25409876; details: cited from earlier work
[7] = test system: RET/PTC1 expressing TPC1 cells; parameters: method as in PMID 25409876; details: cited from earlier work
[8] = molecular target: RET kinase (c-RET-GFRα2) (Homo sapiens, UniProt P07949); experiment: PathHunter express c-RET-GFRα2 functional live-cell assay (neurturin stimulated); format: cell-based
RET kinase (c-RET-GFRα2), sequence (P07949 29-1114): as above
Experimental: The photoactivation of 6 was also tested in a RET functional whole cell assay which utilizes β-galactosidase to produce a luminescent readout[24][25][26] (see Methods section for assay details). Compound 6 was added to live cells expressing RET kinase in two identical preparations, followed by 3 h preincubation at 37 °C. At this point, one preparation was exposed to light (365 nm, 15 min), while the other was kept in the dark. Again, 15 min is clearly not sufficient to complete the decaging (see above). Addition of the growth factor neurturin (required to activate the RET kinase) and incubation for 3 h at 22 °C allowed for activity-correlating signal induction using the supplemented detection reagents. […] To again exclude distortive effects of light on the cells, incubations without inhibitor were exposed to light.
PathHunter express c-RET-GFRα2 functional assay and recombinant human neurturin were purchased from DiscoveRx (DiscoveRx Corporation, Fremont CA 94538 USA) and used according to instructions. […] Incubations were performed in the provided assay buffer (1 vol% DMSO) in a white flat/clear-bottom 96-well plate. Incubation volume was 110 μL. Brief procedure; Cells were thawed and diluted to ca. 100 000 cells/mL, followed by plating and acclimatization in 37 °C, 5% CO2, humidified, environment for 48 h. Thereafter, the inhibitor was added and the plate was returned to 37 °C for 3 h. The cells were then stimulated with the GDNF-family growth factor neurturin (applied concentration: 15 ng/mL = EC80) and incubated 3 h at 22 °C in the dark. An activity-correlating luminescence signal was induced using the detection reagent provided in the kit according to the recommended protocol. Luminescence was recorded on a BMG Labtech Fluostar Omega luminometer. All incubations were done in duplicates.

[9] = test system: MCF7 cells; parameters: method as in PMID 25409876; details: cited from earlier work
[10] = test system: cell lines used (TPC1, 8505C, C643, MCF7); parameters: method as in PMID 25409876; details: any of the cell lines used; cited from earlier work
[11] = Solubility in aqueous media / buffer; format: physicochemical
[12] = Light-induced decaging (365 nm) monitored by HPLC; format: physicochemical
Experimental: Indeed, this compound was soluble in aqueous buffer (1 vol% DMSO) up to 100 μM. Photoinduced cleavage of 6 was readily achieved with 365 nm light, as monitored by HPLC.
(§1) Steady state absorption measurements (for thermal stability assessment of 6, see Fig. S3) were carried out on a Cary Bio 50 UV/vis spectrometer equipped with a Varian PCB 1500 Water Peltier System thermostat for temperature control. Sample volume was 3.0 mL. […] Irradiation in the assays was accomplished by placing the lamp directly on top of the sample plates/dishes. It should be noted that the exact light conditions in the assays may differ slightly depending on the type of plates/dishes used (see Methods sections below for plate specifications).
Figure S1. Light-induced decaging of 6. A Tris buffer solution (1vol% DMSO) containing 100 µM 6 was successively subjected to t = 0, 3, 6, 9, 12, 15, 30, 60, and 90 min of 365 nm light. After each irradiation period, an aliquot was drawn and analyzed using HPLC with UV detection. The integrated areas for the chromatogram peaks associated with 1 (hollow squares) and 6 (solid circles) were fitted globally (shared time constant) to a first order exponential (solid line), yielding a time constant of τ = 9.6 min for the decaging of 6. It should be noted that the individually extracted time constants for […]
from the globally fitted value.
(§2) (1 picture or pasted object on this page, not shown here)

[13] = Thermal stability in aqueous buffer by UV/vis absorption; format: physicochemical; details: 48 h, 37 °C, 10 mM phosphate buffer pH 7.0, 1 vol% DMSO
Experimental: as §1
5.3 Thermal stability of 6 in 10 mM phosphate buffer, pH 7.
Figure S3. UV/vis absorption spectra of 6 in 10 mM phosphate buffer (pH 7.0, 1 vol% DMSO) at
t = 0 (solid black line), and after t = 48 h in 37 °C (dashed red line). Inset: Absorption at λ = 321 nm as
as §2

[14] = 100 µM 6 in Tris buffer 1 vol% DMSO

Structure (SMILES): CC(C)n1nc(C#Cc2ccccc2)c2c(N)ncnc21 [compound 1]
- motoneuron axonal phenotype ([1]; 10 μM during development): phenotype was also observed
- motoneuron axonal phenotype ([1]; 50 μM for 90 min at 6 hpf): phenotype was also observed
- in vitro activity against RET [2]: low nM range
- selectivity profile toward RET [2]: partial inhibition of only six other tyrosine kinases
- IC50 ([3]; free inhibitor, no irradiation, 10 μM ATP, 30 min room temperature): 0.072 µM
- effect on GDNF-induced RET phosphorylation of ERK1/2 [4]: inhibitory effect
- MAPK signalling and proliferation [5]: not
- MAPK signalling and proliferation [6]: not
- MAPK signalling and proliferation [7]: inhibited
- IC50 ([8]; free inhibitor, no irradiation, 3 h preincubation 37 °C): 0.47 µM
- PI3K/Akt and MAPK signalling and estrogen receptor α (ERα) phosphorylation [9]: inhibited
- proliferation [9]: inhibit proliferation to a similar degree as tamoxifen
- cytotoxicity [10]: No cytotoxicity was observed

Structure (SMILES): COc1cc(COC(=O)Nc2ncnc3c2c(C#Cc2ccccc2)nn3C(C)C)c([N+](=O)[O-])cc1OC [compound 2]
- solubility in aqueous media [11]: insufficiently soluble

Structure (SMILES): COc1cc(COC(=O)Nc2ncnc3c2c(C#Cc2ccccc2)nn3CCO)c([N+](=O)[O-])cc1OC [compound 3]
- solubility in aqueous media [11]: too low to be practical for biological assays

Structure (SMILES): COc1cc(COC(=O)Nc2ncnc3c2c(C#Cc2ccccc2)nn3C(C)C)c([N+](=O)[O-])cc1OCC(=O)O [compound 6, 2-(4-((((1-isopropyl-3-(phenylethynyl)-1H-pyrazolo[3,4-d]pyrimidin-4-yl)carbamoyl)oxy)methyl)-2-methoxy-5-nitrophenoxy)acetic acid]
- motoneuron axonal phenotype ([1]; 10 μM, irradiated 15 min at 14 hpf): virtually no effect
- motoneuron axonal phenotype ([1]; 50 μM from 3 hpf for 11 h, irradiated 15 min 365 nm at 14 hpf, imaged 2 dpf): motoneurons with shortened and malformed axons
- motoneuron axonal phenotype ([1]; irradiated at 24 hpf after 10 h of incubation and wash): similar, but less severe, axonal phenotypes
- motoneuron axonal phenotype ([1]; non-irradiated embryos (50 μM)): did not show any phenotypic anomalies
- RET kinase activity ([3]; after irradiation): 10%
- RET kinase activity ([3]; before irradiation): 90%
- increase of inhibitory capability upon light exposure ([3]; irradiated (365 nm, 15 min) vs non-irradiated): 12 fold
- IC50 ([3]; non-irradiated (kept in the dark)): 6.8 µM
- IC50 ([8]; irradiated (365 nm, 15 min)): 8.7 µM
- IC50, live-cell RET activity ([8]; non-irradiated): no IC50 value could be obtained
- partial inhibition of RET activity in live cells ([8]; non-irradiated, at concentrations higher than 6 μM): ca. 40%
- exposure time required for complete (>99%) decaging [12]: at least 45 minutes
- time constant τ, consumption of 6 (individual fit) [12, 14]: 8.7 min
- time constant τ, liberation of 1 (individual fit) [12, 14]: 13.1 min
- time constant τ of decaging, global fit (first order) ([12]; 1.5 mW/cm^2, 100 µM in Tris buffer 1 vol% DMSO): 9.6 min
- solubility ([11]; kinetic from dmso stock, aqueous buffer, 1 vol% DMSO): ≤ 100 µM
- thermal stability (absorption spectrum) [13]: no changes in the absorption spectrum were detected; also recorded: No signs of degradation
